The values that follow come from patent US11919900B1 (priority 2023, dated 2024).

Assay [1] concerns multidrug-resistant (MDR) strains of Mycobacterium tuberculosis. The experiment in a line: microbe, parasite or virus in culture. It is filed as cell-based. The following applies: for MIC: Mycobacterium tuberculosis, 192 h, read-out: Antitubercular activity against Mycobacterium tuberculosis MDR (MIC).
Assay [2] relates to extensively drug resistant (XDR) strains of Mycobacterium tuberculosis. Briefly: microbe, parasite or virus in culture. Format: cell-based. The following applies: 192 h, read-out: Antitubercular activity against Mycobacterium tuberculosis XDR (MIC).

In brackets after ≈: the same amount, converted by molar mass.

As to `COC(=O)c1c(C(=O)OC)c2c(Br)cc3ccccc3n2c1C(=O)c1ccc(OC)cc1` [QUIN-KNV1, Dimethyl 4-bromo-1-(4-methoxybenzoyl)pyrrolo[1,2-a]quinoline-2,3-dicarboxylate], the MIC in assay [1] and in assay [2] was 2 µg/mL (≈ 4.03 µM) each time.

For the molecule `CCOC(=O)c1cc(C(=O)c2ccc(OC)cc2)n2c1c(Br)cc1ccccc12` [QUIN-KNV2, Ethyl 4-bromo-1-(4-methoxybenzoyl)pyrrolo[1,2-a]quinoline-3-carboxylate], the MIC in assay [1] and in assay [2] was 4 µg/mL (≈ 8.84 µM) each time.

As to `COC(=O)c1c(C(=O)OC)c2c(Br)cc3ccccc3n2c1C(=O)c1ccc(Cl)cc1` [QUIN-KNV3, Dimethyl 4-bromo-1-(4-chlorobenzoyl)pyrrolo[1,2-a]quinoline-2,3-dicarboxylate], the MIC in assay [1] and in assay [2] was 4 µg/mL (≈ 7.99 µM) in each case.

In the case of `CCOC(=O)c1cc(C(=O)c2ccc(Cl)cc2)n2c1c(Br)cc1ccccc12` [QUIN-KNV4, Ethyl 4-bromo-1-(4-chlorobenzoyl)pyrrolo[1,2-a]quinoline-3-carboxylate], in assay [1], the MIC was found to be 8 µg/mL (≈ 17.5 µM).

As to `COC(=O)c1c(C(=O)OC)c2c(Br)cc3ccccc3n2c1C(=O)c1ccc(Br)cc1` [QUIN-KNV5, Dimethyl 4-bromo-1-(4-bromobenzoyl)pyrrolo[1,2-a]quinoline-2,3-dicarboxylate], the MIC amounted to 1 µg/mL (≈ 1.83 µM) in assay [1] and 2 µg/mL (≈ 3.67 µM) in assay [2].

Consider `CCOC(=O)c1cc(C(=O)c2ccc(Br)cc2)n2c1c(Br)cc1ccccc12` [QUIN-KNV6, Ethyl 4-bromo-1-(4-bromobenzoyl)pyrrolo[1,2-a]quinoline-3-carboxylate], for which the MIC in assay [1] and in assay [2] was 4 µg/mL (≈ 7.98 µM) in each case.

Regarding `COC(=O)c1c(C(=O)OC)c2c(Br)cc3ccccc3n2c1C(=O)c1ccc(F)cc1` [QUIN-KNV7, Dimethyl 4-bromo-1-(4-fluorobenzoyl)pyrrolo[1,2-a]quinoline-2,3-dicarboxylate], in assay [1], the MIC is 16 µg/mL (≈ 33 µM).

Take `CCOC(=O)c1cc(C(=O)c2ccc(F)cc2)n2c1c(Br)cc1ccccc12` [QUIN-KNV8, Ethyl 4-bromo-1-(4-fluorobenzoyl)pyrrolo[1,2-a]quinoline-3-carboxylate]: the MIC in assay [1] and in assay [2] was 4 µg/mL (≈ 9.09 µM) in each case.

Turning to `COC(=O)c1c(C(=O)OC)c2c(Br)cc3ccccc3n2c1C(=O)c1ccc(C#N)cc1` [QUIN-KNV9, Dimethyl 4-bromo-1-(4-cyanobenzoyl)pyrrolo[1,2-a]quinoline-2,3-dicarboxylate], the MIC in assay [1] was 8 µg/mL (≈ 16.3 µM); in assay [2], 16 µg/mL (≈ 32.6 µM).

With `CCOC(=O)c1cc(C(=O)c2ccc(C#N)cc2)n2c1c(Br)cc1ccccc12` [QUIN-KNV10, Ethyl 4-bromo-1-(4-cyanobenzoyl)pyrrolo[1,2-a]quinoline-3-carboxylate], in assay [1], the MIC turned out to be 16 µg/mL (≈ 35.8 µM).

`COC(=O)c1c(C(=O)OC)c2c(Br)cc3ccccc3n2c1C(=O)c1ccccc1` [QUIN-KNV11, Dimethyl 1-benzoyl-4-bromopyrrolo[1,2-a]quinoline-2,3-dicarboxylate]: the MIC in assay [1] was 16 µg/mL (≈ 34.3 µM).

Regarding “Ethyl 4-bromo-1-(2-nitrobenzoyl)pyrrolo[1,2-a]quinoline-3-carboxylate [QUIN-KNV12]”, in assay [1] (MDR-TB, drug resistance at least to isoniazid and rifampicin, REMA, 8 days at 37° C. then resazurin overnight), the “Antitubercular activity against Mycobacterium tuberculosis MDR (MIC)” value is 8 µg/mL.
